What was measured:
[1] = molecular target: Mitogen-activated protein kinase 12 (Homo sapiens) (UniProt P53778); test: Inhibition of human SAPK3 assessed as remaining activity at 10 uM in presence of [gamma-32P]ATP by […] assay
[2] = molecular target: Vascular endothelial growth factor receptor 2 (Homo sapiens) (UniProt P35968); test: Inhibition of recombinant human KDR expressed in insect Sf21 cells assessed as remaining activity at 10 uM preincubated for 15 mins followed by poly(Glu:Tyr) substrate addition for 30 mins in presence of [gamma-32P]ATP by […] assay
[3] = AUC (0 to infinity) in Sprague-Dawley rat at 5 mg/kg, iv up to 24 hrs by LC/MS/MS analysis; type: ADME, organism-based; design: dose 5 mg/kg, route intravenous, time infinity; conditions: in vivo
[4] = molecular target: Inhibitor of nuclear factor kappa-B kinase subunit beta (Homo sapiens) (UniProt O14920); test: Inhibition of recombinant human IKK-beta expressed in insect Sf21 cells assessed as remaining activity at 10 uM preincubated for 15 mins followed by IKKtide substrate addition for 30 mins in presence of [gamma-32P]ATP by […] assay
[5] = molecular target: Non-receptor tyrosine-protein kinase TYK2 (Homo sapiens) (UniProt P29597); test: Inhibition of human TYK2 assessed as remaining activity at 10 uM in presence of [gamma-32P]ATP by […] assay
[6] = molecular target: Tyrosine-protein kinase ABL1 (Homo sapiens, UniProt P00519); test: Inhibition of recombinant human ABL1 expressed in insect cells assessed as remaining activity at 10 uM preincubated for 15 mins followed by poly(Glu:Tyr) substrate addition for 30 mins in presence of [gamma-32P]ATP by […] assay
[7] = Solubility of the compound in PBS at pH 7.4 after 1 hr by HPLC-MS analysis; type: physicochemical
[8] = molecular target: Tyrosine-protein kinase JAK1 (Homo sapiens) (UniProt P23458); test: Inhibition of human JAK1 assessed as remaining activity at 10 uM in presence of [gamma-32P]ATP by […] assay
[9] = molecular target: Ribosomal protein S6 kinase alpha-5 (Homo sapiens) (UniProt O75582); test: Inhibition of recombinant human MSK1 expressed in insect Sf21 cells assessed as remaining activity at 10 uM preincubated for 15 mins followed by Crosstide KK substrate addition for 30 mins in presence of [gamma-32P]ATP by […] assay
[10] = molecular target: Serine/threonine-protein kinase mTOR (Homo sapiens) (UniProt P42345); test: Inhibition of human mTOR assessed as remaining activity at 10 uM in presence of [gamma-32P]ATP by […] assay
[11] = molecular target: Tyrosine-protein kinase Lck (Homo sapiens) (UniProt P06239); test: Inhibition of recombinant human LCK expressed in insect cells assessed as remaining activity at 10 uM preincubated for 15 mins followed by poly(Glu:Tyr) substrate addition for 30 mins in presence of [gamma-32P]ATP by […] assay
[12] = molecular target: Tyrosine-protein kinase Fes/Fps (Homo sapiens) (UniProt P07332); test: Inhibition of recombinant human FES expressed in insect Sf21 cells assessed as remaining activity at 10 uM preincubated for 15 mins followed by poly(Glu:Tyr) substrate addition for 30 mins in presence of [gamma-32P]ATP by […] assay
[13] = molecular target: Macrophage colony-stimulating factor 1 receptor (Homo sapiens) (UniProt P07333); test: Inhibition of recombinant human FMS expressed in insect Sf21 cells assessed as remaining activity at 10 uM preincubated for 15 mins followed by poly(Glu:Tyr) substrate addition for 30 mins in presence of [gamma-32P]ATP by […] assay
[14] = molecular target: Tyrosine-protein kinase JAK2 (Homo sapiens) (UniProt O60674); test: Inhibition of recombinant human JAK2 expressed in insect cells assessed as remaining activity at 10 uM preincubated for 15 mins followed by poly(Glu:Tyr) substrate addition for 30 mins in presence of [gamma-32P]ATP by […] assay
cells = conditions: Homo sapiens, THP-1, 48 h
Description: Growth inhibition of human THP1 cells expressing wild type FLT-3 after 48 hrs by XTT assay

[15] = molecular target: cAMP-dependent protein kinase catalytic subunit alpha (Homo sapiens) (UniProt P17612); test: Inhibition of human recombinant PRKACA expressed in Escherichia coli assessed as remaining activity at 10 uM preincubated for 15 mins followed by PKA substrate peptide addition measured after 30 mins in presence of [gamma-32P]ATP by […] assay
[16] = molecular target: Tyrosine-protein kinase Blk (Homo sapiens) (UniProt P51451); test: Inhibition of BLK (unknown origin) assessed as remaining activity at 10 uM preincubated for 15 mins followed by substrate addition for 30 mins in presence of [gamma-32P]ATP by […] assay
[17] = molecular target: Serine/threonine-protein kinase pim-1 (Homo sapiens) (UniProt P11309); test: Inhibition of recombinant human PIM1 expressed in Escherichia coli assessed as remaining activity at 10 uM preincubated for 15 mins followed by S6 kinase/Rsk2 substrate peptide 2 addition for 30 mins in presence of [gamma-32P]ATP by […] assay
[18] = molecular target: Mitogen-activated protein kinase 9 (Homo sapiens) (UniProt P45984); test: Inhibition of recombinant human JNK2alpha2 expressed in insect Sf21 cells assessed as remaining activity at 10 uM preincubated for 15 mins followed by ATF2 substrate addition for 30 mins in presence of [gamma-32P]ATP by […] assay
[19] = molecular target: Tyrosine-protein kinase BTK (Homo sapiens) (UniProt Q06187); test: Inhibition of recombinant human BTK expressed in insect Sf21 cells assessed as remaining activity at 10 uM preincubated for 15 mins followed by poly(Glu:Tyr) substrate addition for 30 mins in presence of [gamma-32P]ATP by […] assay
[20] = molecular target: Dual specificity mitogen-activated protein kinase kinase 6 (Homo sapiens) (UniProt P52564); test: Inhibition of human MKK6 assessed as remaining activity at 10 uM in presence of [gamma-32P]ATP by […] assay
[21] = molecular target: Platelet-derived growth factor receptor beta (Homo sapiens) (UniProt P09619); test: Inhibition of recombinant human PDGFR-beta expressed in insect Sf21 cells assessed as remaining activity at 10 uM preincubated for 15 mins followed by poly(Glu:Tyr) substrate addition for 30 mins in presence of [gamma-32P]ATP by […] assay
[22] = molecular target: Dual specificity mitogen-activated protein kinase kinase 1 (Homo sapiens) (UniProt Q02750); test: Inhibition of recombinant human MEK1 expressed in Escherichia coli assessed as remaining activity at 10 uM preincubated for 15 mins followed by myelin basic protein substrate addition for 30 mins in presence of [gamma-32P]ATP by […] assay
[23] = molecular target: Vascular endothelial growth factor receptor 1 (Homo sapiens) (UniProt P17948); test: Inhibition of recombinant human FLT1 expressed in insect Sf21 cells assessed as remaining activity at 10 uM preincubated for 15 mins followed by poly(Glu:Tyr) substrate addition for 30 mins in presence of [gamma-32P]ATP by […] assay
Chain of Vascular endothelial growth factor receptor 1 (Homo sapiens) (P17948 whole entry): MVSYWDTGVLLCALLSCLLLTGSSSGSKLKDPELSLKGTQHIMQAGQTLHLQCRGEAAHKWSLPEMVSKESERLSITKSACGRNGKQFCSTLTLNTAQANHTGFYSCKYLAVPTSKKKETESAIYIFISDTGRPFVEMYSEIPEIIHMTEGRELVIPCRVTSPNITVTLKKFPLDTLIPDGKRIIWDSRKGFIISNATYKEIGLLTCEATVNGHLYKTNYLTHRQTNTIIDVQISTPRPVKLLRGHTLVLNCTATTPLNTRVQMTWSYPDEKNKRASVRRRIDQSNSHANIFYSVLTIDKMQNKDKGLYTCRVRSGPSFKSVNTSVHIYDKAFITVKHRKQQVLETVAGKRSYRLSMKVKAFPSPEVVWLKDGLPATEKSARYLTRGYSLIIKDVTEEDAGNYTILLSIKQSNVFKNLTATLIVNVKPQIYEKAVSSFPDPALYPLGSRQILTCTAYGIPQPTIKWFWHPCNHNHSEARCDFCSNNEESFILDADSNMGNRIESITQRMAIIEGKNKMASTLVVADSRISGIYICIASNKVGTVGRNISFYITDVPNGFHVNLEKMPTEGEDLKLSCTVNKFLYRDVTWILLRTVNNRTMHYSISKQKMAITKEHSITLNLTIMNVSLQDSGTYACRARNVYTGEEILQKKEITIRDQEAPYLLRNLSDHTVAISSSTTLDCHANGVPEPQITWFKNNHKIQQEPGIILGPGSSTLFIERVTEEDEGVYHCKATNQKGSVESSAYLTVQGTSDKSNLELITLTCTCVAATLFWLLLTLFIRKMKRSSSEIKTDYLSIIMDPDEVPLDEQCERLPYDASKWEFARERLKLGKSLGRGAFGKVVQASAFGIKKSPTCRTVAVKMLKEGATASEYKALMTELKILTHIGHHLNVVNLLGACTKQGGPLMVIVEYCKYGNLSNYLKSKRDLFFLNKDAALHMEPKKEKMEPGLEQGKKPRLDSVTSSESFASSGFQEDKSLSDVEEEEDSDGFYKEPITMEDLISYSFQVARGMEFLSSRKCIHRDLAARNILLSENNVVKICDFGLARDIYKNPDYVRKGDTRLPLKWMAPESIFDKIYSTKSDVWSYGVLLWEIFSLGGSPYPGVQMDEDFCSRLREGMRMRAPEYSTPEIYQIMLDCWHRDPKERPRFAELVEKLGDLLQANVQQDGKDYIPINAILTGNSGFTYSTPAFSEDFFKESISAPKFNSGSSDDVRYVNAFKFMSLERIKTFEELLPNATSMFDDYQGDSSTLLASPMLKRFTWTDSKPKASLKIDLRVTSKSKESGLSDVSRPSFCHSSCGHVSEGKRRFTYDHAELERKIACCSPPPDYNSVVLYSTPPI

Chain of Serine/threonine-protein kinase pim-1 (Homo sapiens) (P11309 whole entry, looked up): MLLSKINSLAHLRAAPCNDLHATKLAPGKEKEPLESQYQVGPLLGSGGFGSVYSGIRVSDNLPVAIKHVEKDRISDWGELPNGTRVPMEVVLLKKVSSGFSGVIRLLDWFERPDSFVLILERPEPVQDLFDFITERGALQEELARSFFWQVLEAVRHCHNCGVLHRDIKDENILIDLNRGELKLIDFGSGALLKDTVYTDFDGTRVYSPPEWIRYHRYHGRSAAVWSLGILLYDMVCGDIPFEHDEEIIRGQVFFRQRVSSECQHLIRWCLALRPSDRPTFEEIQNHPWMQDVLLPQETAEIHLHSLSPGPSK
Chain of Inhibitor of nuclear factor kappa-B kinase subunit beta (Homo sapiens) (O14920 whole entry): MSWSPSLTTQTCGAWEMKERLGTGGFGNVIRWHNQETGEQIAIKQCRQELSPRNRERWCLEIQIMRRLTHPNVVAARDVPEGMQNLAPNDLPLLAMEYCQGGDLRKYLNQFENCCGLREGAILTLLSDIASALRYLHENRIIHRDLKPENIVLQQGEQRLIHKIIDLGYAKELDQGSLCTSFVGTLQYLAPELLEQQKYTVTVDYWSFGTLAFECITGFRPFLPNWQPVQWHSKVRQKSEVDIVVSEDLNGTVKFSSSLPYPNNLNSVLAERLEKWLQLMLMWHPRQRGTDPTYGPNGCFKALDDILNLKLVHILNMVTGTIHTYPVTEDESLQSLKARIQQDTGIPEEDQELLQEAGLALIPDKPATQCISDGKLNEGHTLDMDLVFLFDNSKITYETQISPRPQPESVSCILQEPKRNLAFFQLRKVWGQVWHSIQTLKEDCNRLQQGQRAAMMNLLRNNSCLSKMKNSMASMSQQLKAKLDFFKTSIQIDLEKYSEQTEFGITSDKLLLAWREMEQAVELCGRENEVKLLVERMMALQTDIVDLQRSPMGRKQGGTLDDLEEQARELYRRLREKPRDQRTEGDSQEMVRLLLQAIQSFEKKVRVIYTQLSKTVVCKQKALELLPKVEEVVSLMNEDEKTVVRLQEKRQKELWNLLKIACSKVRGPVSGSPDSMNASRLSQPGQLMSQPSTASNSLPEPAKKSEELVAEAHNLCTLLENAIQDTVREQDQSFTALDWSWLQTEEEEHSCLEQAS
Chain of Tyrosine-protein kinase Blk (Homo sapiens) (P51451 2-505 limits assumed): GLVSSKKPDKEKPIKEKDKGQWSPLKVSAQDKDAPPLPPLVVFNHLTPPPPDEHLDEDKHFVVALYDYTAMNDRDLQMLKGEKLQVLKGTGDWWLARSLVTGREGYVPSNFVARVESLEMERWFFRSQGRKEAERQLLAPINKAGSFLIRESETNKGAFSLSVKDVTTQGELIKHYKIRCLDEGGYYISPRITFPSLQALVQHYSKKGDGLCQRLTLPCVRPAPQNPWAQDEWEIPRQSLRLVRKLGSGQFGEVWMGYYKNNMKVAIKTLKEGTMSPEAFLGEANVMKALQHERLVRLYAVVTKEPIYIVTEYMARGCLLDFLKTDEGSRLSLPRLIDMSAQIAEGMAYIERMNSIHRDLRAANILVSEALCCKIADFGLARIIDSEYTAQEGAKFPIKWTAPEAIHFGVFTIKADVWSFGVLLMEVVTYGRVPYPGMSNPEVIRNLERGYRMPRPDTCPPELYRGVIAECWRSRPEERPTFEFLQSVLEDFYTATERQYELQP
Chain of Tyrosine-protein kinase ABL1 (P00519 whole entry): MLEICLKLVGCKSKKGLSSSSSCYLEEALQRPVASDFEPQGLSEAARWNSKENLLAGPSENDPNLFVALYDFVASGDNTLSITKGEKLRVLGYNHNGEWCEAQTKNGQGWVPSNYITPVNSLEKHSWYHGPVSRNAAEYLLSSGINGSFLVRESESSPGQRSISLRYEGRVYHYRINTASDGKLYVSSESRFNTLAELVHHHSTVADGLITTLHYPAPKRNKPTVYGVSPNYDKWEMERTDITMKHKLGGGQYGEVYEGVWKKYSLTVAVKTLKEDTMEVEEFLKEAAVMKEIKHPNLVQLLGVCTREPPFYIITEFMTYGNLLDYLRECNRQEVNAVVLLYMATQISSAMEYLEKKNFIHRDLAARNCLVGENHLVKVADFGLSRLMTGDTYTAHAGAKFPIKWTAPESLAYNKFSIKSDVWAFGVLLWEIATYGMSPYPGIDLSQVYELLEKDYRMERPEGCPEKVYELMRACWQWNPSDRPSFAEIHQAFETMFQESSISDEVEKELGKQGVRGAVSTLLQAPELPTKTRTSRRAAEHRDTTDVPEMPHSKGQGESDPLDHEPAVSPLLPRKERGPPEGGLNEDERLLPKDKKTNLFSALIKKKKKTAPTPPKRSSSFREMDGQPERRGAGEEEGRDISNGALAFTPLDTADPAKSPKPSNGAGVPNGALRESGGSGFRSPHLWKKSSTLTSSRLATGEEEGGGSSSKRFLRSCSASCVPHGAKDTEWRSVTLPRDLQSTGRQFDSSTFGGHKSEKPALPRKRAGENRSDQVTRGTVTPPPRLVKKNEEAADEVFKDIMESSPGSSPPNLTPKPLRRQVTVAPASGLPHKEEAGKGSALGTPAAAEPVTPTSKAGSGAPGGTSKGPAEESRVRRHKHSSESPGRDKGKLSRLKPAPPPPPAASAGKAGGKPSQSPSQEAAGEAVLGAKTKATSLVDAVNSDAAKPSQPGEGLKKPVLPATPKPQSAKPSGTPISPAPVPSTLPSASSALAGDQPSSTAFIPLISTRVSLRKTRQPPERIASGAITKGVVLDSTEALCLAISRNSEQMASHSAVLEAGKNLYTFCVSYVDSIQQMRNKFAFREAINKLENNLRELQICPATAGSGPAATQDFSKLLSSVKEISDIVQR
Chain of Ribosomal protein S6 kinase alpha-5 (Homo sapiens) (O75582 whole entry, looked up): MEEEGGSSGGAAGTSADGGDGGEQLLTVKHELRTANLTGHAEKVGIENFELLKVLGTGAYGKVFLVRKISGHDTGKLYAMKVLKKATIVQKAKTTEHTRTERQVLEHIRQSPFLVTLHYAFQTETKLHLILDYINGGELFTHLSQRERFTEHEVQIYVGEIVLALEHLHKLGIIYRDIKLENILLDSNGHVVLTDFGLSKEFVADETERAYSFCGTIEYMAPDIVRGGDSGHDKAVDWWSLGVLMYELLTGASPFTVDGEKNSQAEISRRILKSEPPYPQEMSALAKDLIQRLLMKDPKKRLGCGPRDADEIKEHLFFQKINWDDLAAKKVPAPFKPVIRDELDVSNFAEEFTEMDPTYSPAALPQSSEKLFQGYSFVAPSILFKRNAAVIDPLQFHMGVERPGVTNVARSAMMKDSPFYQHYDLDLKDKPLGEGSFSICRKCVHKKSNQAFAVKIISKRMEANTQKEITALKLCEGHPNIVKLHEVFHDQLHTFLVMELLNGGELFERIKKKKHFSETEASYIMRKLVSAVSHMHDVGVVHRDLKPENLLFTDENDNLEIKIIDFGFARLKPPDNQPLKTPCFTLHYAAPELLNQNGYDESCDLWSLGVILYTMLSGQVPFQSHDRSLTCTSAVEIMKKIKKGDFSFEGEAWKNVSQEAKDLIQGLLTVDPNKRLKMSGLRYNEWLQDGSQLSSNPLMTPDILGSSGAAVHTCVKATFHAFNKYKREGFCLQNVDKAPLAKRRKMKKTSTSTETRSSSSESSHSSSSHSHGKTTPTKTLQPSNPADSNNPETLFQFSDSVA

CNCCOc1ccc(-c2sc3nc(-c4cccs4)nc(NN4C(=O)C=C(C)C4=O)c3c2C)cc1.Cl
Activity [1]: 99%
Activity [2]: 53%
AUC(0-inf) [3]: 2120 ng·h/mL
Activity [4]: 63%
Activity [5]: 67%
Activity [6]: 11%
solubility at 1 h [7]: 2.96 µM
Activity [8]: 111%
Activity [9]: 110%
Activity [10]: 79%
Activity [11]: 31%
Activity [12]: 78%
Activity [13]: 78%
Activity [14]: 99%
GI50 (cells): 559 nM
Activity [15]: 112%
Activity [16]: 35%
Activity [17]: 46%
Activity [18]: 113%
Activity [19]: 83%
Activity [20]: 102%
Activity [21]: 88%
Activity [22]: 103%
Activity [23]: 40%

Source: ChEMBL document CHEMBL3856191, “Structural modifications at the 6-position of thieno[2,3-d]pyrimidines and their effects on potency at FLT3 for treatment of acute myeloid leukemia” (Eur J Med Chem, 2016)
